# “Also recorded” adds a separate entry of the source.
# Tests used:
# physchem = format: physicochemical
# TXA2 biosynthesis = experiment: Urinary 2,3-dinor-TXB2 (TX-M) excretion, dermal aspirin, Example 2; format: in vivo, human
# Experimental: (§1) Only healthy male and female volunteers were studied. The subjects were asked to avoid aspirin and any other cyclooxygenase inhibitors for the 10 days before and throughout the period of investigation. Aspirin (acetyl salicylic acid, USP) powder was dissolved in propylene glycol and either isopropyl alcohol or ethanol (1.7:1 v/v) to a final concentration of 94 mg/ml. […] The aspirin preparation was made daily immediately prior to its application Volunteers attended the clinic where the preparation was applied and were asked not to wash the area for at least 12 hours. The aspirin solution was applied to the forearm and upper arm over a 15 min interval. Volunteers received aspirin 250 mg (n=4), aspirin 750 mg (n=6) or vehicle (n=6) for 10 days and were followed for 8 days following drug withdrawal. The volunteers were aged 31-56 years, with equal numbers of male and females in each treatment group.
# (§2) Blood without anticoagulant was obtained for serum TXB2, the stable metabolite of TXA2, prior to and at intervals during and following aspirin administration. The blood was allowed to clot in glass at 37° C. for 60 min and the serum removed and stored at -20° C. until analyzed. Urine was collected over 24 hours at corresponding times for measurement of 2,3-dinor-TXB2 (TX-M) and 2,3-dinor-6-keto-PGF1a (PGI-M), major enzymatic metabolites of TXA2 and PGI2, respectively [Lawson et al., Analyt. Biochem. 150:463 (1985); FitzGerald et al., N. Engl. J. Med. 310: 1065 (1984)]. Excretion of these products is an index of the in vivo formation of their parent compounds [FitzGerald et al., supra; Reilly and Fitzgerald, Blood 69: 180 (1987)]. Serum TXB2 and urinary metabolites were determined by negative ion-chemical ionization, gas chromatography-mass spectrometry (NICI-GCMS) using authentic deuterated standards, as previously described [Braden et al., supra].
# platelet cyclooxygenase = experiment: Serum TXB2 during and after dermal aspirin (index of platelet cyclooxygenase); format: in vivo, human
# Excerpt: In studying the effects of the methods of the present invention platelet cyclooxygenase activity was used as a measure of aspirin bioavailability, in addition to plasma drug levels. […] Inhibition of urinary TX-M followed a similar pattern. TX-M is a major enzymatic metabolite of TXB2 and its excretion is an index of TXA2 biosynthesis in vivo. In contrast, the vehicle alone had no effect on serum TXB2 or urinary TX-M. Following withdrawal of therapy, serum TXB2 and TX-M recovered gradually over a period of days. This is consistent with inhibition of platelet cyclooxygenase in vivo. As the enzyme is inhibited irreversibly, recovery of platelet TXA2 biosynthesis parallels the formation of new platelets, a process that has a half-life of 5 days.
# as §1, §2
# thromboxane synthesis = conditions: cited from earlier work
# [1] = system: TX-M excretion (TXA2 biosynthesis); experiment: Urinary TX-M excretion before and after dermal or oral aspirin, Example 3; format: in vivo, human; parameters: TX-M post ASA: unit not given beside the values
# Experimental: (§3) In an additional 4 subjects, we examined the increase in PGI2 formation in response to intravenous bradykinin prior to and following oral aspirin 75 mg or dermal aspirin 750 mg daily for 14 days. The protocol for bradykinin has been described previously [Clark, N.Engl.J.Med 325:1137 (1991)]. Volunteers were admitted after an overnight fast to the Clinical Research Center. Blood samples were obtained for serum TXB2 and the subject asked to void. Through a peripheral vein, 1 liter of normal saline was infused over 1 hour. After a further hour, bradykinin was infused in incremental doses of 100-800 ng/kg/min, each over 15 mm. The infusion was continued at the maximum tolerated dose for a total period of 2 hr. Blood pressure and heart rate were monitored continuously. Urine was collected in separate 2 hr aliquots prior to, during and following the bradykinin infusion.
# (§4) ^1 The excretion of TXM and PGIM before and following dermal aspirin
# (§5) 750 mg/day or oral aspirin 75 mg/day for 10 days. Urine samples were
# (§6) collected over 2 hr before (rest) and following the administration of […]
# skin = experiment: Skin reactions and histology after dermal aspirin; format: in vivo, human
# [2] = system: pregnancy-induced hypertension and preeclamptic toxemia; conditions: daily doses, third trimester, women at high risk; cited from earlier work
# [3] = system: PGI2 formation in response to intravenous bradykinin; experiment: Urinary PGI-M excretion at rest and after bradykinin infusion, Example 3; format: in vivo, human; conditions: for PGI-M (stim) post ASA: bradykinin-stimulated
# Experimental: as §3, §4, §5, §6
# PGI2 biosynthesis = experiment: Urinary 2,3-dinor-6-keto-PGF1a (PGI-M) excretion, dermal aspirin, Example 2; format: in vivo, human; conditions: for Urinary PGI-M excretion, peak decrease (day 4): p=0.074 by ANOVA (not significant)
# Experimental: as §1, §2
# PGI2 synthesis = conditions: cited from earlier work
# [4] = highest dose of dermal aspirin (750 mg/day)
smiles,measurement,setting,value
"CC(=O)Oc1ccccc1C(=O)O [aspirin, acetyl salicylic acid]",degraded at 24 h,"physchem; 24 hr, room temperature, propylene glycol and isopropyl alcohol or ethanol (1.7:1 v/v), 94 mg/ml, read-out: Salicylate detected in vehicle (aspirin stability)",< 1%
same,Stability of aspirin in vehicle,"physchem; propylene glycol and alcohol vehicle, 24 hr room temperature",stable
same,"Urinary TX-M excretion, 8 days following drug withdrawal",TXA2 biosynthesis; dermal aspirin 750 mg/day,65±9 % of pretreatment value
same,"Urinary TX-M excretion, day 10","TXA2 biosynthesis; dermal aspirin 750 mg/day, n=5, p=0.002, baseline 498±76 pg/mg creatinine",32±7 % of baseline
same,Urinary TX-M excretion response,TXA2 biosynthesis; dermal aspirin 250 and 750 mg/day,dose dependent reduction in the urinary excretion of TX-M
same,Inhibition of platelet cyclooxygenase,platelet cyclooxygenase; aspirin absorbed through the skin,marked and selective inhibition of platelet cyclooxygenase
same,"Serum TXB2 recovery, day 8 after withdrawal",platelet cyclooxygenase; dermal aspirin 250 mg/day,93±7 % of baseline
same,"Serum TXB2 (fall in), day 10","platelet cyclooxygenase; dermal aspirin 250 mg/day, n=4, p<0.01",55±11%
same,"Serum TXB2 recovery, day 8 after withdrawal",platelet cyclooxygenase; dermal aspirin 750 mg/day,65±9 % of baseline
same,Serum TXB2 response,"platelet cyclooxygenase; dermal aspirin 750 mg/day, n=6",progressive reduction in serum TXB2 in all but one of the volunteers
same,"Serum TXB2, day 10 of application","platelet cyclooxygenase; dermal aspirin 750 mg/day, n=5 (one non-responder excluded), p=0.003",5±3 % of baseline
same,Decrease in serum TXB2 in the subjects of Example 4,"platelet cyclooxygenase; dermal aspirin, subjects selected for pharmacokinetics",> 90%
same,"Maximum inhibition of platelet cyclooxygenase, as measured by serum TXB2","platelet cyclooxygenase; dermal, highest dose, 10 days",exceeded 95%
same,"Thromboxane-B2 synthesis in vitro and urinary 2,3-dinor-thromboxane-B2",thromboxane synthesis; approximately 40 mg/day,"inhibit thromboxane-B2 synthesis in vitro and to reduce the urinary excretion of 2,3-dinor-thromboxane-B2"
same,TXA2 and PGI2 synthesis,"thromboxane synthesis; approximately 1,000 mg/day",inhibits both TXA2 and PGI2 synthesis
same,Maternal and neonatal thromboxane,"thromboxane synthesis; low doses, women at risk for pregnancy-induced hypertension","selectively suppress maternal thromboxane levels, but only partially suppressed neonatal thromboxane"
same,TX-M post ASA,"[1]; Dermal aspirin 750 mg/day, PT 1, pre ASA 220",46
same,TX-M post ASA,"[1]; Dermal aspirin 750 mg/day, PT 2, pre ASA 121",29
same,TX-M post ASA,"[1]; Oral aspirin 75 mg/day, PT 1, pre ASA 136",26
same,TX-M post ASA,"[1]; Oral aspirin 75 mg/day, PT 2, pre ASA 111",43
same,Urinary TX-M,[1]; dermal aspirin 750 mg/day,marked fall in urinary TX-M; also recorded: suppressed TXM
same,Urinary TX-M,[1]; oral aspirin 75 mg/day,marked fall in urinary TX-M
same,"Subjects with skin reactions, including erythema and peeling",skin; dermal aspirin,30 % of subjects
same,Skin reactions with alternate day application,"skin; dermal, alternate day, up to 8 weeks",without reactions for up to 8 weeks
same,Skin histology,"skin; one subject, 10 days, 250 mg/day",no histological changes
same,Incidence of pregnancy-induced hypertension and preeclamptic toxemia,[2],significantly reduce the incidence of pregnancy-induced hypertension and preeclamptic toxemia
same,PGI-M (rest) post ASA,"[3]; Dermal aspirin 750 mg/day, PT 1, pre ASA 163",138
same,PGI-M (rest) post ASA,"[3]; Dermal aspirin 750 mg/day, PT 2, pre ASA 105",149
same,PGI-M (rest) post ASA,"[3]; Oral aspirin 75 mg/day, PT 1, pre ASA 104",63
same,PGI-M (rest) post ASA,"[3]; Oral aspirin 75 mg/day, PT 2, pre ASA 200",96
same,PGI-M (stim) post ASA,"[3]; Dermal aspirin 750 mg/day, PT 1, pre ASA 1520",1553
same,PGI-M (stim) post ASA,"[3]; Dermal aspirin 750 mg/day, PT 2, pre ASA 559",601
same,PGI-M (stim) post ASA,"[3]; Oral aspirin 75 mg/day, PT 1, pre ASA 433",173
same,PGI-M (stim) post ASA,"[3]; Oral aspirin 75 mg/day, PT 2, pre ASA 340",132
same,Resting and bradykinin-stimulated PGI-M excretion,[3]; dermal aspirin 750 mg/day,PGI2 formation in response to bradykinin infusion was also unaltered; also recorded: largely unaltered; also recorded: had not effect on
same,Resting and bradykinin-stimulated PGI-M excretion,[3]; oral aspirin 75 mg/day,suppressed basal and bradykinin-stimulated PGI-M excretion; also recorded: decrease in urinary PGI-M at rest and following stimulation with bradykinin
same,PGI2 biosynthesis based on urinary PGI-M,PGI2 biosynthesis; dermal aspirin,little inhibition of basal or stimulated PGI2 formation; also recorded: only a small fall in PGI2 biosynthesis
same,"Urinary PGI-M excretion, peak decrease (day 4)","PGI2 biosynthesis; dermal aspirin 250 mg/day, baseline 402±139 pg/mg creatinine",84±4 % of baseline
same,"Urinary PGI-M excretion, peak decrease (day 4)","PGI2 biosynthesis; dermal aspirin 750 mg/day, baseline 248±73 pg/mg creatinine",76±7 % of baseline
same,Decrease in basal PGI-M excretion by day 4,PGI2 biosynthesis; [4],24%
same,PGI-M excretion by day 10,PGI2 biosynthesis; [4],83 % of baseline
same,"Inhibition of PGI2 synthesis, arterial and venous tissue","PGI2 synthesis; 20 mg/day for 1 week, atherosclerotic patients",50%
same,Urinary PGI2 metabolites / prostacyclin biosynthesis,PGI2 synthesis; approximately 40 mg/day,no significant effect on prostacyclin biosynthesis
same,"Reduction of PGI2 synthesis, arterial and venous tissue",PGI2 synthesis; equally low doses (about 40 mg/day),50%
same,Bradykinin-stimulated PGI2 formation,PGI2 synthesis; oral aspirin 75 mg/day,abolished

# Reference: patent US6071896A, “Suppression of thromboxane levels by percutaneous administration of aspirin” (Gundersen Clinic, Ltd., priority 1998, dated 2000)
